In patent publication US10376520B2, “Methods for the treatment of cardiovascular disorders” (Galapagos NV, priority 2015, dated 2019):

Tested on: RA patients
Test: Atherogenic index, Study 1 (RA patients, add-on to MTX)
Type: in vivo, human
Conditions: for Atherogenic index Mean percentage CFB - 12 weeks results / Atherogenic index Median CFB - 12 weeks results / Atherogenic index Mean CFB: 2 × 100 mg (b.i.d. group); for atherogenic index variation, decrease compared to pre-treatment baseline: Study 1, after 12 weeks treatment
Method: As used herein, the term ‘atherogenic index’ refers to
Double-blind, placebo-controlled add on study in subjects with moderately to severely active RA who have an inadequate response to methotrexate (MTX) (oral or parenteral).
Compound 1 (dosed as a [Compound 1:HCl:3H2O]) is dosed for twelve weeks once daily (q.d.) (50 mg, 100 mg or 200 mg) or twice daily (b.i.d.) (25 mg, 50 mg or 100 mg); or placebo.
At Week 12, the subjects on placebo who have not achieved 20% improvement in swollen joint count (SJC66) and tender joint count (TJC68) are re-randomized automatically to receive Compound 1 (dosed as a [Compound 1:HCl:3H2O]) either at 100 mg q.d. or 50 mg b.i.d. doses in a blinded fashion; subjects on 50 mg q.d. who have not achieved 20% improvement in SJC66 and TJC68 will be assigned to 100 mg q.d. and subjects on 25 mg b.i.d. that have not achieved a 20% improvement in SJC66 and TJC68 will be assigned to 50 mg b.i.d. Subjects who switch treatment at week 12 are handled as if they discontinued at week 12 for the purpose of statistical analysis, whereas subjects in the other groups will maintain their randomized treatment until Week 24.
The atherogenic index has been identified to be a good predictor of cardiovascular disorders risks and is calculated as follows: […]

[1] = increased from 25 mg b.i.d. to 50 mg b.i.d at 12 weeks, week 1
[2] = increased from 25 mg b.i.d. to 50 mg b.i.d at 12 weeks, week 2
[3] = increased from 25 mg b.i.d. to 50 mg b.i.d at 12 weeks, week 4
[4] = increased from 25 mg b.i.d. to 50 mg b.i.d at 12 weeks, week 8
[5] = increased from 25 mg b.i.d. to 50 mg b.i.d at 12 weeks, week 12
[6] = increased from 25 mg b.i.d. to 50 mg b.i.d at 12 weeks, week 16
[7] = increased from 25 mg b.i.d. to 50 mg b.i.d at 12 weeks, week 20
[8] = increased from 25 mg b.i.d. to 50 mg b.i.d at 12 weeks, week 24
[9] = increased from 50 mg q.d. to 100 mg q.d. at 12 weeks, week 1
[10] = increased from 50 mg q.d. to 100 mg q.d. at 12 weeks, week 2
[11] = increased from 50 mg q.d. to 100 mg q.d. at 12 weeks, week 4
[12] = increased from 50 mg q.d. to 100 mg q.d. at 12 weeks, week 8
[13] = increased from 50 mg q.d. to 100 mg q.d. at 12 weeks, week 12
[14] = increased from 50 mg q.d. to 100 mg q.d. at 12 weeks, week 16
[15] = increased from 50 mg q.d. to 100 mg q.d. at 12 weeks, week 20
[16] = increased from 50 mg q.d. to 100 mg q.d. at 12 weeks, week 24
[17] = placebo switched to 50 mg b.i.d at week 12, week 16
[18] = placebo switched to 50 mg b.i.d at week 12, week 20
[19] = placebo switched to 50 mg b.i.d at week 12, week 24
[20] = placebo switched to 100 mg q.d. at week 12, week 16
[21] = placebo switched to 100 mg q.d. at week 12, week 20
[22] = placebo switched to 100 mg q.d. at week 12, week 24

## O=C(Nc1nc2cccc(-c3ccc(CN4CCS(=O)(=O)CC4)cc3)n2n1)C1CC1 [Compound 1, cyclopropanecarboxylic acid {5-[4-(1,1-dioxo-thiomorpholin-4-ylmethyl)-phenyl]-[1,2,4]triazolo[1,5-a]pyridin-2yl}-amide]
Week 2
  Atherogenic index Mean percentage CFB - 12 weeks results: −5%
  Atherogenic index Median CFB - 12 weeks results: -0.20 mmol/L
Week 4
  Atherogenic index Mean CFB: -0.30 mmol/L
  Atherogenic index Mean percentage CFB - 12 weeks results: −7%
  Atherogenic index Median CFB - 12 weeks results: -0.30 mmol/L
Week 8
  Atherogenic index Mean CFB: -0.18 mmol/L
  Atherogenic index Mean percentage CFB - 12 weeks results: −4%
  Atherogenic index Median CFB - 12 weeks results: -0.20 mmol/L
Week 12
  Atherogenic index Mean CFB: -0.24 mmol/L
  Atherogenic index Mean percentage CFB - 12 weeks results: −5%
  Atherogenic index Median CFB - 12 weeks results: -0.10 mmol/L
100 mg/bid dose
  atherogenic index variation, decrease compared to pre-treatment baseline: 0.2 fold
200 mg q.d.
  atherogenic index variation, decrease compared to pre-treatment baseline: 0.35 fold
[1]
  Atherogenic index Mean CFB - 24 weeks results: 0.05 mmol/L
  Atherogenic index Mean percentage CFB - 24 weeks results: 3.56%
  Atherogenic index Median CFB - 24 weeks results: -0.10 mmol/L
[2]
  Atherogenic index Mean CFB - 24 weeks results: -0.11 mmol/L
  Atherogenic index Mean percentage CFB - 24 weeks results: −1.15%
  Atherogenic index Median CFB - 24 weeks results: -0.20 mmol/L
[3]
  Atherogenic index Mean CFB - 24 weeks results: -0.15 mmol/L
  Atherogenic index Mean percentage CFB - 24 weeks results: −3.02%
  Atherogenic index Median CFB - 24 weeks results: -0.10 mmol/L
[4]
  Atherogenic index Mean CFB - 24 weeks results: -0.17 mmol/L
  Atherogenic index Mean percentage CFB - 24 weeks results: −3.11%
  Atherogenic index Median CFB - 24 weeks results: -0.10 mmol/L
[5]
  Atherogenic index Mean CFB - 24 weeks results: -0.19 mmol/L
  Atherogenic index Mean percentage CFB - 24 weeks results: −2.58%
  Atherogenic index Median CFB - 24 weeks results: -0.30 mmol/L
[6]
  Atherogenic index Mean CFB - 24 weeks results: -0.10 mmol/L
  Atherogenic index Mean percentage CFB - 24 weeks results: −0.03%
[7]
  Atherogenic index Mean CFB - 24 weeks results: -0.26 mmol/L
  Atherogenic index Mean percentage CFB - 24 weeks results: −4.14%
[8]
  Atherogenic index Mean CFB - 24 weeks results: -0.24 mmol/L
  Atherogenic index Mean percentage CFB - 24 weeks results: −4.89%
  Atherogenic index Median CFB - 24 weeks results: -0.30 mmol/L
[9]
  Atherogenic index Mean CFB - 24 weeks results: -0.03 mmol/L
  Atherogenic index Mean percentage CFB - 24 weeks results: 0.53%
  Atherogenic index Median CFB - 24 weeks results: 0.00 mmol/L
[10]
  Atherogenic index Mean CFB - 24 weeks results: -0.06 mmol/L
  Atherogenic index Mean percentage CFB - 24 weeks results: −0.94%
  Atherogenic index Median CFB - 24 weeks results: 0.10 mmol/L
[11]
  Atherogenic index Mean CFB - 24 weeks results: -0.11 mmol/L
  Atherogenic index Mean percentage CFB - 24 weeks results: −1.77%
  Atherogenic index Median CFB - 24 weeks results: -0.10 mmol/L
[12]
  Atherogenic index Mean CFB - 24 weeks results: -0.13 mmol/L
  Atherogenic index Mean percentage CFB - 24 weeks results: −1.35%
  Atherogenic index Median CFB - 24 weeks results: -0.10 mmol/L
[13]
  Atherogenic index Mean CFB - 24 weeks results: 0.02 mmol/L
  Atherogenic index Mean percentage CFB - 24 weeks results: 2.72%
  Atherogenic index Median CFB - 24 weeks results: 0.20 mmol/L
[14]
  Atherogenic index Mean CFB - 24 weeks results: -0.05 mmol/L
  Atherogenic index Mean percentage CFB - 24 weeks results: −0.95%
  Atherogenic index Median CFB - 24 weeks results: -0.10 mmol/L
[15]
  Atherogenic index Mean CFB - 24 weeks results: 0.02 mmol/L
  Atherogenic index Mean percentage CFB - 24 weeks results: −0.01%
  Atherogenic index Median CFB - 24 weeks results: 0.00 mmol/L
[16]
  Atherogenic index Mean CFB - 24 weeks results: -0.12 mmol/L
  Atherogenic index Mean percentage CFB - 24 weeks results: −2.40%
  Atherogenic index Median CFB - 24 weeks results: 0.00 mmol/L
[17]
  Atherogenic index Mean CFB - 24 weeks results: -0.47 mmol/L
  Atherogenic index Mean percentage CFB - 24 weeks results: −4.74%
  Atherogenic index Median CFB - 24 weeks results: -0.10 mmol/L
[18]
  Atherogenic index Mean CFB - 24 weeks results: -0.39 mmol/L
  Atherogenic index Mean percentage CFB - 24 weeks results: −6.13%
  Atherogenic index Median CFB - 24 weeks results: -0.20 mmol/L
[19]
  Atherogenic index Mean CFB - 24 weeks results: -0.45 mmol/L
  Atherogenic index Mean percentage CFB - 24 weeks results: −8.32%
  Atherogenic index Median CFB - 24 weeks results: -0.30 mmol/L
[20]
  Atherogenic index Mean CFB - 24 weeks results: -0.07 mmol/L
  Atherogenic index Mean percentage CFB - 24 weeks results: −0.54%
[21]
  Atherogenic index Mean CFB - 24 weeks results: -0.12 mmol/L
  Atherogenic index Mean percentage CFB - 24 weeks results: −1.77%
[22]
  Atherogenic index Mean CFB - 24 weeks results: -0.12 mmol/L
  Atherogenic index Mean percentage CFB - 24 weeks results: −3.43%
